According to article PMC7822874, “Chemoprotective antimalarials identified through quantitative high-throughput screening of Plasmodium blood and liver stage parasites” (Scientific Reports, 2021):
Like-named read-outs stand apart in the source and are kept apart here.

Legend:
HepG2-A16-CD81EGFP cells = settings: averaged response (percent)
[1] = tested on: P. falciparum Dd2 (clone B2) asexual blood stage parasites; assay: P. falciparum Dd2 asexual blood stage SYBR Green-I 72 h proliferation assay (qHTS); assay type: cell-based, Plasmodium falciparum; settings: averaged P. falciparum asexual blood stage potency, log10 of AC50 in M
in vitro = settings: human, hepg2-a16-cd81egfp cells, % viability
[2] = tested on: P. berghei-ANKA-GFP-LucCON liver stage parasites in HepG2-A16-CD81EGFP cells; assay: P. berghei liver stage Pb-Luc assay, Method 1 (UCSD, 1536-well); assay type: cell-based, Plasmodium berghei; settings: P. berghei liver stage, averaged response (percent); for Average P. berghei 1 µM response (%): the header list (r8) defines it as the 1 µM dose
[3] = HepG2, the header list (r10) describes it as the 1 µM dose

SMILES | Average HepG2 3 µM response( %) (HepG2-A16-CD81EGFP cells; HepG2, 3 µM dose) [%] | Average HepG2 3 µM response( %) (HepG2-A16-CD81EGFP cells; [3]) [%] | Pf ABS Log AC50 (M) [1] [M] | viability at 3 µM (in vitro) [%] | Average P. berghei 3 µM response( %) [2] [%] | Average P. berghei 1 µM response (%) [2] [%]
CCN(CC)CCN1C(=O)c2ccccc2NC1c1ccc(N(C)C)cc1 (centres unmarked) [MLS000554078] | 96 | 103 | -5.612 | 95.7 | 84 | 102
Cc1ccc(C)c(-n2c(-c3ccc(Br)cc3)csc2=NC(=O)c2ccccc2F)c1 [MLS000766129] | 89 | 97 | -5.187 | 89.1 | 44 | 91
CCSc1nc2sc3c(c2c(=O)n1-c1ccccc1)CCN(C(C)C)C3 [MLS001173590] | 93 | 100 | -6.000 | 92.6 | 63 | 91
CN(C(Cc1ccc(O[S+](=O)([O-])c2cccc3cnccc23)cc1)C(=O)N1CCN(c2ccccc2)CC1)[S+](=O)([O-])c1cccc2cnccc12 (centres unmarked) [NCGC00163381] | 79 | 87 | -6.300 | 79.2 | 77 | –
N=c1n(CCN2CCCCC2)c2ccccc2n1CC(=O)c1ccc(Cl)c(Cl)c1 [MLS001042209] | 87 | 89 | -5.750 | 87.4 | 89 | 92
C/C(=N\Nc1ncnc2sc(C)c(C)c12)c1ccccn1 [MLS001176565] | 40 | 52 | -5.912 | 40.2 | 5.49 | 9
O=C(Nc1ncccc1O)c1ccc(NS(=O)(=O)c2ccc3[nH]c(=O)[nH]c3c2)cc1 [MLS001138628] | 91 | 105 | -6.437 | 91 | 23 | 59
Cc1cc(C)c(-c2csc(NC(=O)CCCc3nc4ccccc4c(=O)[nH]3)n2)c(C)c1 [MLS001156669] | 103 | 99 | -5.900 | 103 | 12 | 72
Cc1cc(Nc2ccc(C)c(C)c2)n2nc(C)nc2n1 [MLS000116616] | 90 | 91 | -5.712 | 90.3 | 39 | 76
Cc1cc(N2CCN(C3CCCC3)CC2)n2c(nc3ccccc32)c1C#N [MLS000039270] | 90 | 89 | -6.262 | 89.8 | 94 | 106
NS(=O)(=O)c1ccc(N/N=C/c2cn(-c3ccccc3)nc2-c2cccs2)cc1 [MLS000393371] | 94 | 91 | -6.762 | 94.1 | 24 | 69
CCOc1ccc(-n2c(SCC(=O)OC)nc3sc4c(c3c2=O)CCN(C)C4)cc1 [MLS001213437] | 103 | 112 | -5.950 | 103 | 102 | 88
CCN(CC)Cc1cc2[nH]c3c4ccc(Cl)cc4ncc3c2cc1OC [MLS000757007] | 101 | 105 | -6.700 | 101 | 134 | 108
Cn1nc(C(F)(F)F)c(-c2ccc(F)cc2)c1NC(=O)Nc1ccc(F)cc1 [MLS000830769] | 99 | 95 | -5.962 | 99 | 90 | 148
O=C1C(Nc2ccccc2)=C/C(=N\S(=O)(=O)c2cccs2)c2ccccc21 [MLS000374486] | 86 | 101 | -6.462 | 86 | 34 | 65
O=C(Nc1ccc(-c2csc(Nc3cccc(C(F)(F)F)c3)n2)cc1)c1cc([N+](=O)[O-])cc(C(F)(F)F)c1 [MLS000911524] | 101 | 101 | -5.387 | 101 | 73 | 100
COc1ccc(Nc2cc(C)c3ccc(O)cc3n2)cc1 [MLS000674789] | 96 | 88 | -6.187 | 96.2 | 118 | 103
Cc1cc(C)n(-c2nnc(N3CCN(c4ccccc4)CC3)nn2)n1 [MLS000695202] | 94 | 97 | -6.012 | 93.9 | 84 | 102
Cc1cc(Nc2nc3ccccc3nc2Cl)n(-c2ccccc2C)n1 [MLS000595322] | 98 | 93 | -6.062 | 98.3 | 93 | 114
NC1=NC[C@@H](Cc2ccc(O)cc2)N1CCCCC1CCCCC1 [MLS000888822] | 98 | 113 | -5.487 | 97.6 | 40 | 86
COc1ccc(-c2c[n+](-c3ccccc3)c3n2CCS3)cc1 [MLS000587970] | 88 | 97 | -5.712 | 88.3 | 31 | 92
Cl.Oc1ccc(C2NCc3ccccc3-n3cccc32)cc1Cl (centres unmarked) [MLS000047999] | 94 | 100 | -5.962 | 94 | 90 | 101
Cc1nn(-c2ccccc2)c(C)c1/C=N/Nc1nc2ccccc2[nH]1 [MLS000332160] | 87 | 92 | -6.012 | 87.3 | 43 | 83
N#Cc1c(N2CCN(c3ccc(F)cc3)CC2)nc(N)c2c(N)nc3c(c12)CC(=O)N3C1CC1 [MLS001003889] | 90 | 102 | -6.262 | 89.7 | 50 | 101
